Key:
[1] = tested on: C. parvum; assay: High content imaging assay, C. parvum infected HCT-8 cells; assay type: cell-based; conditions: Cryptosporidium parvum, percentage of infected HCT-8 cells, 48 hours treatment, read-out: Cp HCl IC50
Procedure: (§1) Human ileocecal colorectal adenocarcinoma cells (HCT-8 [HRT-18] ATCC, CCL-34) were maintained in T-175 flasks (Corning, 431080) in complete growth medium (RPMI-1640 medium (Gibco, 11875) supplemented with 10% heat-inactivated horse serum (Gibco, 26050), 1×MEM non-essential amino acids (Gibco, 11140), 10 mM HEPES (Gibco, 15630), 100 units/mL penicillin, and 100 units/mL streptomycin) at 37° C. and 5% CO2 in a humidified incubator. Cultures were passaged twice weekly using 10 mL of 1×Phosphate-Buffered Saline (PBS) without Ca^2+ and Mg^2+ (Gibco, 20012) for washing and 3-5 mL per T-175 flask of TrypLE Express Enzyme (Gibco, 12604) for dissociation of adherent cells.
Cryptosporidium parvum oocysts purchased from the Sterling Laboratory, University of Arizona (Iowa isolate) were purified from infected calf feces using discontinuous sucrose and cesium chloride centrifugation gradients and stored in PBS solution containing 0.01% Tween 20, 100 units/mL penicillin and 100 units/mL gentamicin.
(§2) Excystation and infection protocols were developed following established methods with some modifications (Gut & Nelson, 1999, Upton et aL, 1995, Bessoff et aL, 2013). Briefly, oocysts were primed in 1 mL of 10 mM hydrochloric acid in 1× Hank's Balanced Salt Solution (HBSS) (Gibco, 14025) for 10 minutes with agitation at 1000 rpm, 37° C. on an Eppendorf thermomixer, then washed twice with 1 mL of room temperature non-acidic 1× HBSS by centrifugation at 13,000 rpm for 3 minutes at 25° C. Primed oocysts were further excysted at a concentration of 1×10^6 oocysts/μL in parasite infection medium consisting of a pre-warmed and pre-gassed 1:1 formulation of Leibovitz's L-15 medium (Gibco, 11415) and UltraCULTURE medium (Lonza, 12-725F) supplemented with 2 mM sodium taurocholate (Sigma, 86339-1), 10% heat-inactivated horse serum, and 200 μM L-ascorbic acid (Sigma, 95210) at 25° C. for 10 minutes. HCT-8 monolayer cells were infected with excysted cryptosporidium at a specified multiplicity of infection (MOI). All dilutions for subsequent assays were performed in parasite infection medium without sodium taurocholate. Pre-excysted oocysts were enumerated microscopically using a C-Chip disposable hemocytometer (NanoEnTek, DHC-N01).
(§3) Compound powders were dissolved in neat DMSO (Fisher, D4121) to 10 mM and stored at 4° C. prior to dilution into source plates. Dilutions were carried out using a Microlab STAR liquid handler (Hamilton) to obtain compound source plates containing the ten-point or eight-point three fold dilutions starting from 10 mM in duplicates. Source plates were stored at 4° C. prior to spotting into assay plates. Before administration, all compound source plates were equilibrated to room temperature. A specified volume of compounds from source plate were spotted to assay plate using an Echo Acoustic liquid handler (LABCYTE, 550) so that the final DMSO concentration was less than 0.5%. Each assay plate a specified number of DMSO-treated negative control wells and a well-studied potent active compound at 100 nM as positive control. As a quality control, all positive and negative-control wells were used to calculate a Z′-value and signal to noise ratio (S:N) for each plate.
Imaging assays were developed following established Cryptosporidium spp labeling and in vitro infection models with some modifications (Bessoff et aL, 2013, Gut & Nelson, 1999). Briefly, 2×10^4 HCT-8 cells per well were seeded into 384-well, flat black clear-bottom OPERA assay plates (Greiner, 789071-G) at 20 μL per well in complete growth medium using a Multidrop Combi liquid handler (ThermoScientific, 5840300) and standard tube dispensing cassette (ThermoScientific, 24072670) and incubated for 24 hours at 37° C. The HCT-8 cells were infected with 10 μL per well of 1×10^4 excysted C. parvum oocysts (host to parasite MOI of 1:0.5) or 10 μL per well of 4×10^4 excysted C. hominis oocysts (MOI 1:2) in parasite infection medium using the Multidrop and incubated at 37° C. […]

[2] = Cytotoxicity against HepG2; assay type: cell-based; conditions: human, HepG2 cells (ATCC HB-8065), 5 days exposure
Procedure: Cytotoxicity against HepG2 (ATCC# HB-8065), a human liver cancer cell line, was determined as previously described earlier (Manjunatha et al., 2015). Briefly, cells were seeded at a density of 10^5 cells per well, incubated at 37° C. for 24 h and exposed to two-fold serially-diluted compounds for 5 days. Cell viability was monitored using the Cell Proliferation Kit II (Invitrogen). The cytotoxicity values of selected compounds are reported in the fifth column [HepG2 CC50 (μM)] of Table II.

[3] = tested on: Cryptosporidium parvum; assay: Cytopathic effect (CPE) based assay, C. parvum infected HCT-8 cells; conditions: HCT-8 host cell viability (CellTiter-Glo), 48 hours treatment, read-out: Cp CPE EC50
In short: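 HCT-8 cells were batch-infected with excysted C. parvum (Iowa isolate) oocysts at MOI 1:2 (host:parasite) for 3 h at 37 °C, then seeded and incubated 24 h before compound addition. Compounds were given as 3-fold dilution series (final DMSO <0.5%). Host-cell loss (cytopathic effect) was read as viability with CellTiter-Glo.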

[4] = target: C. parvum PI(4)K (Cryptosporidium parvum, UniProt Q5CVD3); assay: CpPI(4)K enzymatic assay (Transcreener ADP2 FP); assay type: biochemical
Sequence of C. parvum PI(4)K (Q5CVD3 entry or part of it): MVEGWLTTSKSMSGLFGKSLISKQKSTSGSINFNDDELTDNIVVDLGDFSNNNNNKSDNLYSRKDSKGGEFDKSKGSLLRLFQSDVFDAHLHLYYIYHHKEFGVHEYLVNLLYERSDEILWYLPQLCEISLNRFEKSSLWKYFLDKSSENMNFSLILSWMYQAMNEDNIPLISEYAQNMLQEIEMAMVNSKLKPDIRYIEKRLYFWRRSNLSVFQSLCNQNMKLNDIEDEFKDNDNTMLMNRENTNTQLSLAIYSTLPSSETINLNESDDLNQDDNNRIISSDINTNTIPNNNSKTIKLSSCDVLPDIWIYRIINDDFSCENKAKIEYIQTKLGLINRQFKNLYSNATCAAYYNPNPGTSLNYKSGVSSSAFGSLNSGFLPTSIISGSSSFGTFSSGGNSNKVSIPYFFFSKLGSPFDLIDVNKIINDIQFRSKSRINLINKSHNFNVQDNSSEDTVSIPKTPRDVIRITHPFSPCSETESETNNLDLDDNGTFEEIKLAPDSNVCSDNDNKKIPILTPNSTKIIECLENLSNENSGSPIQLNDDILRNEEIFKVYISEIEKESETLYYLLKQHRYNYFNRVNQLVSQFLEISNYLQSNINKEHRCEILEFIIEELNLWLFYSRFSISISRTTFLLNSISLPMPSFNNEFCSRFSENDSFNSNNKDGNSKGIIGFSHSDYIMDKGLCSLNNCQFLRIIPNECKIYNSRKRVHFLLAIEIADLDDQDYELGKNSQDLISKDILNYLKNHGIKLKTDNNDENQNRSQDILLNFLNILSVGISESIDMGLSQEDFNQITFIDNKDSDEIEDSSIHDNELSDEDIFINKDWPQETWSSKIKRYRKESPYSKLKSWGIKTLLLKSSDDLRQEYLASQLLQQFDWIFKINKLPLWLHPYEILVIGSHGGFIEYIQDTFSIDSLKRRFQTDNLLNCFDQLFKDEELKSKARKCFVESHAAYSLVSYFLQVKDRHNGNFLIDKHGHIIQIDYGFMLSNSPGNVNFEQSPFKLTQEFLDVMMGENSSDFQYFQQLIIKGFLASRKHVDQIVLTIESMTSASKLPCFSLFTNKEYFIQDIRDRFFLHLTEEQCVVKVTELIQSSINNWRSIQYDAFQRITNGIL
From the text: The full-length coding sequence of C. parvum PI(4)K (cgd8_4500, 1114 amino acids) was codon-optimized for baculovirus expression, synthesized and cloned into pFastBac-HTb (Invitrogen 10584-027) in frame with the amino-terminal polyhistidine tag using the BamHI and Hindlll restriction sites. Recombinant pFastBacHTb-CpPI(4)K bacmid clones were generated by site-specific transposition in E. coli DH10Bac (Invitrogen 10361-012). The bacmid sequence was confirmed by direct DNA sequencing to confirm a lack of mutations across the whole gene. The subsequent steps for bacmid isolation, transfection and selection of the recombinant viruses were performed according to the manufacturer's protocol (Bac-to-Bac system #10359, Invitrogen).
SF9 cells, cultured in SF-900 III serum-free medium, were transfected with recombinant baculovirus at 1/200 (v/v) and incubated at 27° C. for 72 h. The pellets were collected after centrifugation and re-suspended in cell lysis buffer (20 mM Tris-HCl, pH 7.5, 300 mM NaCl, 1 mM DTT, 20 mM imidazole, 0.01% Triton X-100 and 1× complete protease inhibitor cocktail without EDTA (Roche Diagnostics 04693116001)). The cell suspension was lysed by sonication and the clarified supernatant was loaded onto a 1 ml HisTrap affinity column (GE Healthcare) pre-equilibrated with buffer A (20 mM Tris-HCl, pH 7.5, 300 mM NaCl, 1 mM DTT, 20 mM Imidazole, and 1× complete protease inhibitor cocktail without EDTA). The column was washed with buffer B (buffer A containing 45 mM imidazole) and the bound protein of interest was eluted with buffer C (buffer A with 90 mM imidazole). The fractions containing CpPI(4)K were pooled, concentrated using Amicon Ultra-15 and purified by a gel-filtration column (Hi-Load 26/60 Superdex 200, GE Healthcare) equilibrated with 20 mM Tris, pH 7.5, 300 mM NaCl, 1 mM DTT and 1× protease inhibitor cocktail without EDTA. The concentrations of the purified protein (Mw 132.39 kda) was determined by using the protein molar extinction coefficient (ε280 nm=133,810 M^−1 cm^−1). Aliquots were flash frozen in liquid nitrogen and immediately stored at −80° C.
The CpPI(4)K enzymatic assay was performed as described earlier with a some modifications (McNamara et al., 2013). Briefly, L-α-phosphatidylinositol (Avanti Polar Lipid 840046), dissolved in 3% n-octylglucoside (Roche Diagnostics 10634425001), was used as the lipid substrate for the PI(4)K activity assay. CpPI(4)K was assayed using Transcreener ADP2 FP detection kit (BellBrook 3010) in a black, solid 384-well plate (Corning 3575). The final assay volume was 10 μl and contained 3 nM of the respective CpPI(4)K construct in 10 mM Tris, pH 7.5, 1 mM DTT, 3 μM ATP, 5 mM Mn2+, 0.05% Triton X-100 and 10 μM phosphatidylinositol/octylglucoside. The enzyme reaction was performed for 50 minutes at room temperature and was stopped by adding 10 μl of detection mix containing 1× stop buffer (50 mM HEPES, pH7.5, 400 mM NaCl, 20 mM EDTA, and 0.02% Brij-35), 2 nM AMP Alexa Fluor 633 tracer, and 20 μg ml^−1 ADP antibody. Fluorescence polarization measurements were performed on the Infinite M1000 plate reader (Tecan) with λex=635 nm and λem=680 nm (20-nm bandwidth). IC50 values were calculated using Graphpad Prism software.
The inhibitory concentration (IC50) of selected compounds on the C. parvPI(4)K activity is provided in the third column [Cp_PI4K_enz IC50 (μM)] of Table II.

[5] = tested on: Cryptosporidium hominis; assay: Cytopathic effect (CPE) based assay, C. hominis infected HCT-8 cells; conditions: HCT-8 host cell viability (CellTiter-Glo), 48 hours treatment, read-out: Ch CPE EC50
Procedure: as §1
Cryptosporidium hominis oocysts were purchased from the Tufts University Cummings School of Veterinary Medicine (courtesy of Dr. Saul Tzipori). C. hominis oocysts were purified from infected gnotobiotic piglet feces and stored in PBS solution containing 0.01% Tween-20, 100 units/mL penicillin and 100 units/mL gentamicin. C. parvum and C. hominis oocysts less than three months old from the date of shedding were used in infection experiments.
as §2, §3
Cryptosporidium spp are obligate-intracellular parasites that infect intestinal epithelial cells and the host cell is killed upon parasite egress. […] The loss of epithelial cells is due to both rapid parasite invasion/multiplication/egress and also pro-inflammatory immune response (Adams et al., 1994, Griffiths et al., 1994). We have observed a consistent cytopathic effect (CPE) in HCT-8 cells with C. spp infection the loss of viability of the host cells using CellTiter-Glo reagent.
Confluent HCT-8 cells in T-175 flasks were directly infected with excysted oocysts at an MOI (host to parasite) of 1:2 for C. parvum and 1:4 for C. hominis. […]

Compound	IC50 [1] [nM]	CC50 at 5 days [2] [nM]	EC50 [3] [nM]	IC50 [4] [nM]	EC50 [5] [nM]
CNC(=O)c1ccc(-c2cnn3ccc(C(=O)N(C)c4ccc(C(F)(F)F)cc4)cc23)cc1 [Example 103]	8	8060	7		
CC(C)[C@H](N)C(=O)Nc1ccc(-c2cnn3ccc(C(=O)N(C)c4ccc(C#N)cc4)cc23)cc1 [Example 45]			332	239	
CN(C(=O)c1ccn2ncc(-c3cnc4[nH]ccc4c3)c2c1)c1ccc(C#N)cn1 [Example 53]			550	47	
CN(C(=O)c1ccn2ncc(-c3ccc(C(N)=O)cc3)c2c1)c1ccc(C#N)cn1 [Example 32]	58	15800	93		119
CC(Cn1cccn1)N(C(=O)c1ccn2ncc(-c3ccc(C(N)=O)cc3)c2c1)c1ccc(C#N)cn1 (stereo not shown) [Example 77]		29300	582	50	
CNC(=O)c1ccc(-c2cnn3ccc(C(=O)N(C)c4ccc(C#N)cc4)cc23)cn1 [Example 97]		31100	241	73	
CNC(=O)c1ccc(-c2cnn3ccc(C(=O)N(c4ccc(C#N)cn4)C(C)(C)C)cc23)cc1 [Example 119]		20100	1930		1940
CNC(=O)c1ccc(-c2cnn3ccc(C(=O)N(c4ccc(C#N)cn4)C4CCCC4)cc23)cc1 [Example 126]		22100	410	71	
CNC(=O)c1ccc(-c2cnn3ccc(C(=O)N(CC4CC4)c4ccc(C#N)cn4)cc23)cc1 [Example 117]		4330	505	7	
CN(C(=O)c1ccn2ncc(-c3ccc(C(N)=O)cn3)c2c1)c1ccc(C#N)cc1 [Example 27]			815	140	
CN(C(=O)c1ccn2ncc(-c3ccc(N)nc3)c2c1)c1ccc(C#N)cn1 [Example 54]		> 50000	324	74	
CN(C(=O)c1ccn2ncc(-c3ccc(C(N)=O)cc3)c2c1)c1ccc(C#N)cc1 [Example 19]		5910	37	3	

— patent US20190030009A1, “COMPOUNDS AND COMPOSITIONS FOR THE TREATMENT OF CRYPTOSPORIDIOSIS” (Novartis AG, priority 2016, published 2019)
